Test [1] has as its target T1, Corticotropin-releasing factor receptor 1 (Mus musculus, UniProt P35347).
T1 sequence (P35347 whole entry): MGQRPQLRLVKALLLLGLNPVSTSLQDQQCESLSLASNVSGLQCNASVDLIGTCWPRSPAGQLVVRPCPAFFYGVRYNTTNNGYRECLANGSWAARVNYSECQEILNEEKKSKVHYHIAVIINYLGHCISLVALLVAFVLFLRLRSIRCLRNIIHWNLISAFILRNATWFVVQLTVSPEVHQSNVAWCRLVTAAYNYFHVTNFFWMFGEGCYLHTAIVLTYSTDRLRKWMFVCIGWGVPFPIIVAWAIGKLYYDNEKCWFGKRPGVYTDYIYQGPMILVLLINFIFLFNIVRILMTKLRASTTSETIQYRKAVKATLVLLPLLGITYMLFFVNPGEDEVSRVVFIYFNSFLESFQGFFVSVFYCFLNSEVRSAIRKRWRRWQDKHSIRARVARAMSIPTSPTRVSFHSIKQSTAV
Put plainly: In vitro effective concentration for mouse corticotropin releasing factor 1 receptor.

Test [2] deals with Corticotropin-releasing factor receptor 2 (Mus musculus, UniProt Q60748). Put plainly: In vitro effective concentration for mouse corticotropin releasing factor 2 receptor.
Corticotropin-releasing factor receptor 2, sequence (Q60748 whole entry): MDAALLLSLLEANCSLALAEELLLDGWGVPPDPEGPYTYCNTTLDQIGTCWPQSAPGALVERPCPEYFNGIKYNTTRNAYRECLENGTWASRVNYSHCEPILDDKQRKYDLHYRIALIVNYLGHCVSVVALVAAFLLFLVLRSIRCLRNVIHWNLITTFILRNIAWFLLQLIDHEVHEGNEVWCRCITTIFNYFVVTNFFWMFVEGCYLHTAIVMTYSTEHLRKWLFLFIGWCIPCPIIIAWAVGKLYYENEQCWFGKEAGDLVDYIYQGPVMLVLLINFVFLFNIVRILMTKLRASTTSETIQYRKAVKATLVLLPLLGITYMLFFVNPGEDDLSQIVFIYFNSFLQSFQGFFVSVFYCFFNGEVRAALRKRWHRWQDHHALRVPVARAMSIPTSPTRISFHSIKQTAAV
The target in test [3] is T2, Corticotropin-releasing factor receptor 1 (Mus musculus) (UniProt P35347).
T2 sequence (whole entry): T1 sequence (P35347 whole entry)
Put plainly: In vitro agonistic activity against mouse corticotropin releasing factor 1 receptor. It counts as functional.

The target in test [4] is Corticotropin-releasing factor receptor 2 (Mus musculus) (UniProt Q60748). Put plainly: In vitro agonistic activity against mouse corticotropin releasing factor 2 receptor. The format is functional.
Corticotropin-releasing factor receptor 2 (Mus musculus), sequence (Q60748 whole entry): as above
For test [5], the species on record is Mus musculus. Put plainly: Selectivity ratio of EC50s for mouse corticotropin releasing factor receptors 1 and 2.

What is called EC50 is the midpoint of the concentration-response curve. High values mean weaker potency, low ones greater potency. The Emax is the greatest response seen or fitted, relative to the assay's reference.

Take `CC[C@H](C)[C@H](NC(=O)[C@@H](NC(=O)[C@H](CC(=O)O)NC(=O)[C@H](CC(C)C)NC(=O)[C@H](CC(C)C)NC(=O)[C@H](CC(C)C)NC(=O)[C@H](CCCN=C(N)N)NC(=O)[C@H](CC(N)=O)NC(=O)[C@H](CC(N)=O)NC(=O)[C@H](C)NC(=O)[C@H](C)NC(=O)[C@H](CCC(N)=O)NC(=O)[C@H](CCC(N)=O)NC(=O)[C@H](CCCCN)NC(=O)[C@H](CCC(=O)O)NC(=O)[C@H](CCCCN)NC(=O)[C@H](CCC(=O)O)NC(=O)[C@H](CCC(N)=O)NC(=O)[C@H](CCCCN)NC(=O)[C@H](CCC(=O)O)NC(=O)[C@@H](NC(=O)[C@H](CCC(=O)O)NC(=O)[C@@H](NC(=O)[C@H](CCSC)NC(=O)[C@H](CCCCN)NC(=O)[C@H](CCCN=C(N)N)NC(=O)[C@H](CC(C)C)NC(=O)[C@H](CC(C)C)NC(=O)[C@H](Cc1c[nH]c2ccccc12)NC(=O)[C@@H](NC(=O)[C@@H]1CCCN1C(=O)[C@H](CC(C)C)NC(=O)[C@H](CC(=O)O)NC(=O)[C@@H](NC(=O)[C@H](CO)NC(=O)[C@@H](NC(=O)[C@@H]1CCCN1C(=O)[C@@H]1CCCN1C(=O)CNC(=O)[C@@H]1CCC(=O)N1)[C@@H](C)CC)[C@@H](C)CC)[C@@H](C)CC)[C@@H](C)CC)[C@@H](C)CC)[C@@H](C)O)C(=O)O`: the values for the EC50 in test [1] and in test [2] were 0.562 µM and 0.0234 µM, respectively. Also, the results for the Emax in test [3] and in test [4] were 99% and 94%, respectively. In addition, the Selectivity in test [5] was 24.

Turning to `CC[C@H](C)[C@H](NC(=O)[C@@H](NC(=O)[C@H](CC(=O)O)NC(=O)[C@H](CC(C)C)NC(=O)[C@H](CC(C)C)NC(=O)[C@H](CC(C)C)NC(=O)[C@H](CCCN=C(N)N)NC(=O)[C@H](CC(N)=O)NC(=O)[C@H](CC(N)=O)NC(=O)[C@H](C)NC(=O)[C@H](C)NC(=O)[C@H](CCC(N)=O)NC(=O)[C@H](CCC(N)=O)NC(=O)[C@H](CCCCN)NC(=O)[C@H](CCC(=O)O)NC(=O)[C@H](CCCCN)NC(=O)[C@H](CCC(=O)O)NC(=O)[C@H](CCC(N)=O)NC(=O)[C@H](CCCCN)NC(=O)[C@H](CCC(=O)O)NC(=O)[C@@H](NC(=O)[C@H](CCC(=O)O)NC(=O)[C@@H](NC(=O)[C@H](CCSC)NC(=O)[C@H](CCCCN)NC(=O)[C@H](CCCN=C(N)N)NC(=O)[C@H](CC(C)C)NC(=O)[C@H](CC(C)C)NC(=O)[C@H](Cc1c[nH]cn1)NC(=O)[C@H](CC(C)C)NC(=O)[C@@H]1CCCN1C(=O)[C@H](CC(C)C)NC(=O)[C@H](CC(=O)O)NC(=O)[C@@H](NC(=O)[C@H](CO)NC(=O)[C@@H](NC(=O)[C@@H]1CCCN1C(=O)[C@@H]1CCCN1C(=O)CNC(=O)[C@@H]1CCC(=O)N1)[C@@H](C)CC)[C@@H](C)CC)[C@@H](C)CC)[C@@H](C)CC)[C@@H](C)O)C(=O)O`, the EC50 was found to be 0.0522 µM in test [1] and 0.0019 µM in test [2]. Also, the results for the Emax in test [3] and in test [4] were 96% and 81%, respectively. The Selectivity in test [5] is 28.

Regarding `CC[C@H](C)[C@H](NC(=O)[C@@H](NC(=O)[C@H](CC(=O)O)NC(=O)[C@H](CC(C)C)NC(=O)[C@H](CC(C)C)NC(=O)[C@H](CC(C)C)NC(=O)[C@H](CCCN=C(N)N)NC(=O)[C@H](CC(N)=O)NC(=O)[C@H](CC(N)=O)NC(=O)[C@H](C)NC(=O)[C@H](C)NC(=O)[C@H](CCC(N)=O)NC(=O)[C@H](CCC(N)=O)NC(=O)[C@H](CCCCN)NC(=O)[C@H](CCC(=O)O)NC(=O)[C@H](CCCCN)NC(=O)[C@H](CCC(=O)O)NC(=O)[C@H](CCC(N)=O)NC(=O)[C@H](CCCCN)NC(=O)[C@H](CCC(=O)O)NC(=O)[C@@H](NC(=O)[C@H](CCC(=O)O)NC(=O)[C@@H](NC(=O)[C@H](CCSC)NC(=O)[C@H](CCCCN)NC(=O)[C@H](CCCN=C(N)N)NC(=O)[C@H](CC(C)C)NC(=O)[C@H](CC(C)C)NC(=O)[C@H](Cc1ccccc1)NC(=O)[C@H](CCC(N)=O)NC(=O)[C@@H]1CCCN1C(=O)[C@H](CC(C)C)NC(=O)[C@H](CC(=O)O)NC(=O)[C@@H](NC(=O)[C@H](CO)NC(=O)[C@@H](NC(=O)[C@@H]1CCCN1C(=O)[C@@H]1CCCN1C(=O)CNC(=O)[C@@H]1CCC(=O)N1)[C@@H](C)CC)[C@@H](C)CC)[C@@H](C)CC)[C@@H](C)CC)[C@@H](C)O)C(=O)O`, the EC50 in test [1] worked out at 0.236 µM; in test [2], 0.0085 µM. Also, the Emax in test [3] and in test [4] was 100% in each case. In addition, the Selectivity in test [5] amounted to 28.

For `CC[C@H](C)[C@H](NC(=O)[C@@H](NC(=O)[C@H](CC(=O)O)NC(=O)[C@H](CC(C)C)NC(=O)[C@H](CC(C)C)NC(=O)[C@H](CC(C)C)NC(=O)[C@H](CCCN=C(N)N)NC(=O)[C@H](CC(N)=O)NC(=O)[C@H](CC(N)=O)NC(=O)[C@H](C)NC(=O)[C@H](C)NC(=O)[C@H](CCC(N)=O)NC(=O)[C@H](CCC(N)=O)NC(=O)[C@H](CCCCN)NC(=O)[C@H](CCC(=O)O)NC(=O)[C@H](CCCCN)NC(=O)[C@H](CCC(=O)O)NC(=O)[C@H](CCC(N)=O)NC(=O)[C@H](CCCCN)NC(=O)[C@H](CCC(=O)O)NC(=O)[C@@H](NC(=O)[C@H](CCC(=O)O)NC(=O)[C@@H](NC(=O)[C@H](CCSC)NC(=O)[C@H](CCCCN)NC(=O)[C@H](CCCN=C(N)N)NC(=O)[C@H](CC(C)C)NC(=O)[C@H](CC(C)C)NC(=O)[C@H](Cc1ccccc1)NC(=O)[C@H](Cc1ccccc1)NC(=O)[C@@H]1CCCN1C(=O)[C@H](CC(C)C)NC(=O)[C@H](CC(=O)O)NC(=O)[C@@H](NC(=O)[C@H](CO)NC(=O)[C@@H](NC(=O)[C@@H]1CCCN1C(=O)[C@@H]1CCCN1C(=O)CNC(=O)[C@@H]1CCC(=O)N1)[C@@H](C)CC)[C@@H](C)CC)[C@@H](C)CC)[C@@H](C)CC)[C@@H](C)O)C(=O)O`, the EC50 in test [1] turned out to be 0.0481 µM; in test [2] it was 0.003 µM. Besides, the Emax was 81% in test [3] and 92% in test [4]. Moreover, in test [5], the Selectivity was 16.

On to `CC[C@H](C)[C@H](NC(=O)[C@@H](NC(=O)[C@H](CC(=O)O)NC(=O)[C@H](CC(C)C)NC(=O)[C@H](CC(C)C)NC(=O)[C@H](CC(C)C)NC(=O)[C@H](CCCN=C(N)N)NC(=O)[C@H](CC(N)=O)NC(=O)[C@H](CC(N)=O)NC(=O)[C@H](C)NC(=O)[C@H](C)NC(=O)[C@H](CCC(N)=O)NC(=O)[C@H](CCC(N)=O)NC(=O)[C@H](CCCCN)NC(=O)[C@H](CCC(=O)O)NC(=O)[C@H](CCCCN)NC(=O)[C@H](CCC(=O)O)NC(=O)[C@H](CCC(N)=O)NC(=O)[C@H](CCCCN)NC(=O)[C@H](CCC(=O)O)NC(=O)[C@@H](NC(=O)[C@H](CCC(=O)O)NC(=O)[C@@H](NC(=O)[C@H](CCSC)NC(=O)[C@H](CCCCN)NC(=O)[C@H](CCCN=C(N)N)NC(=O)[C@H](CC(C)C)NC(=O)[C@H](CC(C)C)NC(=O)[C@@H](NC(=O)[C@H](Cc1ccc(O)cc1)NC(=O)[C@@H]1CCCN1C(=O)[C@H](CC(C)C)NC(=O)[C@H](CC(=O)O)NC(=O)[C@@H](NC(=O)[C@H](CO)NC(=O)[C@@H](NC(=O)[C@@H]1CCCN1C(=O)[C@@H]1CCCN1C(=O)CNC(=O)[C@@H]1CCC(=O)N1)[C@@H](C)CC)[C@@H](C)CC)[C@@H](C)O)[C@@H](C)CC)[C@@H](C)CC)[C@@H](C)O)C(=O)O`, for which the EC50 was determined as 0.189 µM in test [1] and 0.0088 µM in test [2]. The Emax amounted to 99% in test [3] and 100% in test [4]. Also, the Selectivity in test [5] came to 21.

As for `CC[C@H](C)[C@H](NC(=O)[C@@H](NC(=O)[C@H](CC(=O)O)NC(=O)[C@H](CC(C)C)NC(=O)[C@H](CC(C)C)NC(=O)[C@H](CC(C)C)NC(=O)[C@H](CCCN=C(N)N)NC(=O)[C@H](CC(N)=O)NC(=O)[C@H](CC(N)=O)NC(=O)[C@H](C)NC(=O)[C@H](C)NC(=O)[C@H](CCC(N)=O)NC(=O)[C@H](CCC(N)=O)NC(=O)[C@H](CCCCN)NC(=O)[C@H](CCC(=O)O)NC(=O)[C@H](CCCCN)NC(=O)[C@H](CCC(=O)O)NC(=O)[C@H](CCC(N)=O)NC(=O)[C@H](CCCCN)NC(=O)[C@H](CCC(=O)O)NC(=O)[C@@H](NC(=O)[C@H](CCC(=O)O)NC(=O)[C@@H](NC(=O)[C@H](CCSC)NC(=O)[C@H](CCCCN)NC(=O)[C@H](CCCN=C(N)N)NC(=O)[C@H](CC(C)C)NC(=O)[C@H](CC(C)C)NC(=O)[C@H](Cc1ccccc1)NC(=O)[C@@H](NC(=O)[C@@H]1CCCN1C(=O)[C@H](CC(C)C)NC(=O)[C@H](CC(=O)O)NC(=O)[C@@H](NC(=O)[C@H](CO)NC(=O)[C@@H](NC(=O)[C@@H]1CCCN1C(=O)[C@@H]1CCCN1C(=O)CNC(=O)[C@@H]1CCC(=O)N1)[C@@H](C)CC)[C@@H](C)CC)[C@@H](C)CC)[C@@H](C)CC)[C@@H](C)CC)[C@@H](C)O)C(=O)O`, the EC50 was 0.756 µM in test [1] and 0.0128 µM in test [2]. The figures for the Emax in test [3] and in test [4] were 83% and 100%, respectively. Moreover, the Selectivity in test [5] was 59.

Values taken from ChEMBL document CHEMBL1139487, “Discovery of corticotropin releasing factor 2 receptor selective sauvagine analogues for treatment of skeletal muscle atrophy” (J Med Chem, 2005).
